Measurements taken from US20250353849A1, “PURINE COMPOUNDS FOR TREATING DISORDERS” (MARVEL BIOTECHNOLOGY, priority 2021, published 2025).
Where two headings read alike, the source gives them in different places.

Assays:
ADORA2A [1] = target: T1, ADORA2A (Homo sapiens, UniProt P29274); experiment: GPCR screening, Calcium Flux (calcium mobilization), Agonist format; format: cell-based; details: read-out: Max Response
Experimental: (§1) Cell lines were expanded from freezer stocks according to standard procedures. Cells were seeded in a total volume of 20 μL into black-walled, clear-bottom, Poly-D-lysine coated 384-well microplates and incubated at 37° C. for the appropriate time prior to testing.
(§2) Assays were performed in 1×Dye Loading Buffer consisting of 1×Dye, 1×Additive A and 2.5 mM Probenecid in HBSS/20 mM Hepes. Probenicid was prepared fresh. Cells were loaded with dye prior to testing. Media was aspirated from cells and replaced with 20 μL Dye Loading Buffer. Cells were incubated for 30-60 minutes at 37° C.
For agonist determination, cells were incubated with sample to induce response. […] Cells were incubated for 30 minutes at room temperature in the dark to equilibrate plate temperature.
Compound activity was analyzed using CBIS data analysis suite (ChemInnovation, CA).
(§3) When the calcium was released, the fluorescence of the dye was increased and the increase was measured in real-time.

ADORA2A [2] = target: T1, ADORA2A; experiment: GPCR screening, Calcium Flux (calcium mobilization), Antagonist format; format: cell-based; details: for Emax: read-out: Max Response
Experimental: as §1, §2
For antagonist determination, cells were pre-incubated with sample followed by agonist challenge at the EC80 concentration. Intermediate dilution of sample stocks was performed to generate 3X sample in assay buffer. After dye loading, cells were removed from the incubator and 10 μL 3X sample was added. Cells were incubated for 30 minutes at room temperature in the dark to equilibrate plate temperature. Vehicle concentration was 1%.
Compound antagonist activity was measured on a FLIPR Tetra (MDS). Calcium mobilization was monitored for 2 minutes and 10 μL EC80 agonist in HBSS/20 mM Hepes was added to the cells 5 seconds into the assay.
For antagonist and negative allosteric modulation mode assays, percentage inhibition is calculated using the following formula: […]
as §3
FIGS. 1 and 2 show percent reacted (Y) versus concentration in μM (X). Compounds were tested in antagonist mode with the requested GPCR Biosensor Assay. For the antagonist assay, data was normalized to the maximal and minimal response observed in the presence of EC80 ligand and vehicle.

[3] = Calcium Flux, Antagonist format
[4] = Calcium Flux, Antagonist format, EC80 0.021 μM NECA, read-out: RC50 (Result Type IC50)
[5] = antagonist mode, text to FIGS. 1 and 2, EC80 0.021 μM NECA, read-out: half maximal inhibitory concentration (IC50)

T1 sequence (P29274 whole entry): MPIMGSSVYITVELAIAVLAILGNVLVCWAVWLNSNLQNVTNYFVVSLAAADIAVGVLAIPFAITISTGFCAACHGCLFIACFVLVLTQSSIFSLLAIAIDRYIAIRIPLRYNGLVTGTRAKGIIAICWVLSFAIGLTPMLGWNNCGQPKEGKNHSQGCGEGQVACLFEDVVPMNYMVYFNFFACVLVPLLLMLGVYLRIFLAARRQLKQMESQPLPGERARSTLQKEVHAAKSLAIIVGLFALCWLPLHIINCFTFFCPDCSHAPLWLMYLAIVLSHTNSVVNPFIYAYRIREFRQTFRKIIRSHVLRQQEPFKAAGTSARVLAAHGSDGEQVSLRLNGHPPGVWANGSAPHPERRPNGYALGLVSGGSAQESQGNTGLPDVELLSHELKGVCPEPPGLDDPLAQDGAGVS

In the case of `CCn1c(=O)c2c(nc(/C=C/c3ccc(OC)c(OCF)c3)n2C)n(CC)c1=O` [Compound 8, (E)-1,3-diethyl-8-(3-(fluoromethoxy)-4-methoxystyryl)-7-methyl-3,7-dihydro-1H-purine-2,6-dione], the Emax (ADORA2A [1]) is reported as 0%, the “Curve Bottom” value (ADORA2A [2]; [3]) is reported as 7.8668 and the “Curve Top” value (ADORA2A [2]; [3]) is reported as 99.957. For the same compound, the Hill (ADORA2A [2]; [3]) was 1.7211, the IC50 (ADORA2A [2]; [4]) was 0.174 µM and the Emax (ADORA2A [2]; [3]) was 99.1%. It also gave an IC50 (ADORA2A [2]; [5]) of 0.174 µM.
For `CCn1c(=O)c2c(nc(/C=C/c3ccc(OCF)c(OC)c3)n2C)n(CC)c1=O` [Compound 9, (E)-1,3-diethyl-8-(4-(fluoromethoxy)-3-methoxystyryl)-7-methyl-3,7-dihydro-1H-purine-2,6-dione], the Emax (ADORA2A [1]) was 0%, the “Curve Bottom” value (ADORA2A [2]; [3]) was “−.090144” and the “Curve Top” value (ADORA2A [2]; [3]) was 99.922. It also gave a Hill (ADORA2A [2]; [3]) of 1.3438, an IC50 (ADORA2A [2]; [4]) of 0.0955 µM and an Emax (ADORA2A [2]; [3]) of 99.7%. For the same compound, the IC50 (ADORA2A [2]; [5]) was 0.0955 µM.
